From PubChem BioAssay AID743384 (Vanderbilt Specialized Chemistry Center, 2014)
The source made the active and inactive calls. The rule behind the calls is not given here.

Experiments:
[1] = molecular target: Metabotropic glutamate receptor 7 (Rattus norvegicus) (UniProt P35400); test: potentiation of glutamate EC20 at mGlu7 – cell-based, calcium mobilization, Galpha15, dose response (AID 743384); details: mGlu7/Ga15, calcium fluorescence PAM; stronger effect = higher value
[2] = molecular target: Metabotropic glutamate receptor 7 (Homo sapiens) (UniProt Q14831); test: as above; details: mGlu7/Ga15, calcium fluorescence PAM
Metabotropic glutamate receptor 7 (Homo sapiens), sequence (Q14831 whole entry, looked up): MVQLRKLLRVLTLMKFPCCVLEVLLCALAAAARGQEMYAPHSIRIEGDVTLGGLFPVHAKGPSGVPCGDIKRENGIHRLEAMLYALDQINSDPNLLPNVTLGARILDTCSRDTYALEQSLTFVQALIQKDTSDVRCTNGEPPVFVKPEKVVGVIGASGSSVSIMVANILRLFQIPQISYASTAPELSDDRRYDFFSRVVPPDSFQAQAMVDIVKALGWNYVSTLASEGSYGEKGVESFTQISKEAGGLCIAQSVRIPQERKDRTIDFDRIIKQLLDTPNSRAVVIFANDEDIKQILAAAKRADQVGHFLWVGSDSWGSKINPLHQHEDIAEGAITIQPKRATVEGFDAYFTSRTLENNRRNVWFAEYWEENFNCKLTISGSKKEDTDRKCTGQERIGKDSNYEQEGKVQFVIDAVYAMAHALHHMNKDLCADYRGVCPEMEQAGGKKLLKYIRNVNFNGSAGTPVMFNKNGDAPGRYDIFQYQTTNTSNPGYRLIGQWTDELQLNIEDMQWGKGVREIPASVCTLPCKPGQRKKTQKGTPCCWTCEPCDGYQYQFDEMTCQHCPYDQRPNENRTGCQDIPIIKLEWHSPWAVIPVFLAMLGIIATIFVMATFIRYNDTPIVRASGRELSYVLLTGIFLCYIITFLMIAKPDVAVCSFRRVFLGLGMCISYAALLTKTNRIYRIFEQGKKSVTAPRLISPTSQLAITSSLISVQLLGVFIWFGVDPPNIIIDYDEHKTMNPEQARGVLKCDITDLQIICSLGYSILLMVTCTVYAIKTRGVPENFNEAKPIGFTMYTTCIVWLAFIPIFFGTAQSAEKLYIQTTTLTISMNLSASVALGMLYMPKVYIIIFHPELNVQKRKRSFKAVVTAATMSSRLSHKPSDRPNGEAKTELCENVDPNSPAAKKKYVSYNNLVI

Metabotropic glutamate receptor 7 (Rattus norvegicus), sequence (P35400 whole entry, looked up): as the sequence (Q14831 whole entry, looked up) above, with R5G, A27V, N454H, S488T, A520S, D578N counted along it

Structure (SMILES) | % glutamate max response [1] | EC50 [2] [nM]
COC(=O)c1ccc(-n2c(C)cc(C(=O)CNc3ccc(C(=O)O)cc3)c2C)cc1 | inactive | 
CCOc1ccc(-n2c(C)cc(C(=O)CSc3ccc(OC)cc3)c2C)cc1 | inactive | 
COC(=O)c1ccc(-n2c(C)cc(C(=O)CSc3ccc(NC(C)=O)cc3)c2C)cc1 |  | 1500
COC(=O)c1ccc(-n2c(C)cc(C(=O)COc3cccc(N(C)C)c3)c2C)cc1 | inactive | 
